Measurements: patent US5536737A, “Compound having prolyl endopeptidase inhibitory activity and pharmaceutical use thereof” (Japan Tobacco Inc., priority 1992, dated 1996)
Like-named read-outs stand apart in the source and are kept apart here.

Key:
Format in all cases: biochemical
chymotrypsin = target: T1, chymotrypsin (Bos taurus, UniProt P00766); test: Chymotrypsin-inhibitory activity; settings: concentration 0.1 μM; bovine pancreas, pH 8.0
T1 construct: purchased Sigma; host or cells: bovine pancreas
Method: (§1) Inhibitory activity against various proteases
(§2) The compound of the present invention having predetermined concentrations was tested for the specificity of the inhibitory activity against various proteases according to a known test method.
(§3) The methods for the determination of the inhibitory activity against various proteases other than prolyl endopeptidase and the method for calculating the inhibition are as follows.
Determination of chymotrypsin-inhibitory activity
In completely the same manner as above, respective fluorescence (c1, c2 and c3) was determined using a 50 mM Tris-HCl buffer (pH 8.0) as a buffer for determination, a 0.2 μM solution of chymotrypsin (derived from bovine pancreas, Sigma) in the same buffer as an enzyme solution, and a 200 μM solution of 7-(N-succinyl-leucyl-leucyl-varyl-tyrosyl)-4-methylcoumarinamide (Peptide Institute, Inc.) in the same buffer as a substrate solution.
(§4) Using the fluorescence x1, x2 and x3 wherein x is b, c, d, e or f, measured in the above-mentioned manner, the inhibition against various proteases was calculated by the following formula: [formula]

trypsin = target: T2, trypsin (Bos taurus, UniProt P00760); test: Trypsin-inhibitory activity; settings: concentration 0.1 μM; bovine pancreas, pH 8.0
T2 construct: purchased Sigma; host or cells: bovine pancreas
T2 sequence (P00760 24-246): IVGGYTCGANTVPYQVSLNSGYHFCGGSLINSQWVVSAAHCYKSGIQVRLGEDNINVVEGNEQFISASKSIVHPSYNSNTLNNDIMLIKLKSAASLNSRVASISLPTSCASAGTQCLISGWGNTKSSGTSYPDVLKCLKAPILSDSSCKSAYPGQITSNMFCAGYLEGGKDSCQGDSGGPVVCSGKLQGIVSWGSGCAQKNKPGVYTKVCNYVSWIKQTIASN
Method: as §1, §2, §3
Determination of trypsin-inhibitory activity
In the present invention, a 50 mM Tris-HCI buffer (pH 8.0) was used as a buffer for measurement.
To a mixture of the above-mentioned buffer (850 μl ), a solution of the compound of the present invention in the same buffer (50 μl ) and a 0.02 μM solution of trypsin (derived from bovine pancreas, Sigma) in the same buffer (50 μl ) was added a 200 μM solution of 7-(prolyl-phenylaranyl-arginyl)-4methylcoumarinamide (Peptide Institute, Inc.) in the same buffer (50 μl), and the mixture was incubated at 30° C. for 1 hour. The reaction mixture was immersed in ice (0° C.) to terminate the reaction, and the fluorescence (b1) was determined 1 hour later (excitation at 370 nm and emission at 440 nm). Concurrently, an experiment wherein, in the system above, the trypsin solution was substituted for a buffer and an experiment wherein the solution of the compound of the present invention was substituted for said buffer were conducted. Each fluorescence (b2 and b3) was determined.
as §4

prolyl endopeptidase = target: T3, prolyl endopeptidase (Rattus norvegicus, UniProt O70196); test: Prolyl endopeptidase-inhibitory activity; settings: for inhibition at 0.1 µM: read-out: inhibition of prolyl endopeptidase
T3 construct: prolyl endopeptidase extracted from rat brain; from tissue; host or cells: rat brain
T3 sequence (O70196 1-710): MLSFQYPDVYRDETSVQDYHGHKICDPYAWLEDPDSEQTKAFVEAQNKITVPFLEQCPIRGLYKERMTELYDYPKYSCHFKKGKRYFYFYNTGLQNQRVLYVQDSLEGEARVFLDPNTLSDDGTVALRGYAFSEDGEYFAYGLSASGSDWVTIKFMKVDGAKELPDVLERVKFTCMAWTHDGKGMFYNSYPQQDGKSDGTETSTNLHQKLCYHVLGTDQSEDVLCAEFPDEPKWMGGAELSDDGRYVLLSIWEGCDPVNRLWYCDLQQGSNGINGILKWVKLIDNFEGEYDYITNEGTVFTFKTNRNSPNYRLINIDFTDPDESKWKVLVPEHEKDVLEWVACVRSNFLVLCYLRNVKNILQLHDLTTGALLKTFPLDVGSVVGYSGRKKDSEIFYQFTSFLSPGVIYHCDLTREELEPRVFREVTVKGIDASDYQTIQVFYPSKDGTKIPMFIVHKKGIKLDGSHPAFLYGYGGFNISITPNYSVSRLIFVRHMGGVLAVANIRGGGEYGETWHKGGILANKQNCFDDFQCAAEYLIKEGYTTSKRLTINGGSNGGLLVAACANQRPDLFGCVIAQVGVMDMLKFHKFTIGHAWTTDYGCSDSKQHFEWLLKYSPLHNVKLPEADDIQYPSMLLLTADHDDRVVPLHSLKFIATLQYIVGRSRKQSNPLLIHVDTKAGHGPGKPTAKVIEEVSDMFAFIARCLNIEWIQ
Method: Prolyl endopeptidase-inhibitory activity
A mixture of a 0.1M potassium-sodium phosphate buffer (pH 7.0, 2675 μl ), a solution of the compound of the present invention in a 0.1M potassium-sodium phosphate buffer (pH 7.0, 100 μl ) and a solution of prolyl endopeptidase extracted from rat brain in a 25 mM sodium phosphate buffer (100 μl ) [123 unit/1, pH 6.8, containing 1 mM dithiothreitol and 0.5 mM EDTA, prepared by the method described in J. Neurochem., 35, 527 (1980)] was preincubated at 30° C. for 30 minutes. Thereto was added a 0.2 mM solution of 7-(N-succinyl-glycyl-prolyl)-4methylcoumarinamide (Peptide Institute, INC.) in a 0.1M potassium-sodium phosphate buffer (pH 7.0, 125 μl), and the mixture was incubated at 30° C. for 1 hour. The reaction mixture was immersed in ice (0° C.) to terminate the reaction, and the fluorescence (a1) was determined ten minutes later (excitation at 370 nm and emission at 440 nm). Concurrently, an experiment wherein, in the above system, the prolyl endopeptidase solution was substituted for a 25 mM sodium phosphate buffer (pH 6.8, containing 1 mM dithiothreitol and 0.5 mM EDTA) and an experiment wherein the solution of the compound of the present invention was substituted for a 0.1M potassium-sodium phosphate buffer (pH 7.0) were conducted. Each fluorescence (a2 and a3) was determined [See Tanpakushitsu Kakusan Koso, 29, 127 (1984)]. The prolyl endopeptidase inhibition was calculated by the following formula, and IC50, a concentration necessary for 50% inhibition, was estimated by using a semilogarithmic graph paper. [formula]

leucine aminopeptidase = test: Leucine aminopeptidase-inhibitory activity; settings: concentration 0.1 μM; swine kidney, pH 8.0
Method: as §1, §2, §3
Determination of leucine aminopeptidase-inhibitory activity
In completely the same manner as above, respective fluorescence (d1, d2 and d3) was determined using a 50 mM Tris-HCl buffer (pH 8.0) as a buffer for determination, a 0.2 μM solution of leucine aminopeptidase (derived from swine kidney, Sigma) in the same buffer as an enzyme solution and a 200 μM solution of 7-leucyl-4-methyl-coumarinamide (Peptide Institute, Inc.) in the same buffer as a substrate solution.
as §4

cathepsin B = target: T4, cathepsin B (Bos taurus, UniProt P07688); test: Cathepsin B-inhibitory activity; settings: concentration 0.1 μM; bovine spleen, pH 6.0
T4 construct: purchased Sigma; host or cells: bovine spleen
Method: as §1, §2, §3
Determination of cathepsin B-inhibitory activity
In completely the same manner as above, respective fluorescence (f1, f2 and f3) was determined using a 100 mM sodium phosphate buffer (pH 6.0; containing 1.33 mM EDTA Na2) as a buffer for determination, a 0.02 μM solution of cathepsin B (derived from bovine spleen, Sigma) in the same buffer as an enzyme solution and a 200 μM solution of 7-(N-benzyloxy-carbonyl-phenylaranyl-arginyl)-4-methylcouma-rinamide (Peptid Institute, Inc.) in the same buffer as a substrate solution.
as §4

elastase = target: T5, elastase (Sus scrofa, UniProt P00772); test: Elastase-inhibitory activity; settings: concentration 0.1 μM; swine pancreas, pH 8.5
T5 construct: purchased Sigma; host or cells: swine pancreas
Method: as §1, §2, §3
Determination of elastase-inhibitory activity
In completely the same manner as above, respective fluorescence (e1, e2 and e3) was determined using a 1 mM Tris-HCl buffer (pH 8.5) as a buffer for determination, a 0.2 μM solution of elastase (derived from swine pancreas, Sigma) in the same buffer as an enzyme solution and a 200 μM solution of 7-(N-succinyl-aranyl-prolyl-aranyl)-4-methylcoumarinamide (Peptide Institute, Inc.) in the same buffer as a substrate solution.
as §4

T5 sequence (P00772 27-266): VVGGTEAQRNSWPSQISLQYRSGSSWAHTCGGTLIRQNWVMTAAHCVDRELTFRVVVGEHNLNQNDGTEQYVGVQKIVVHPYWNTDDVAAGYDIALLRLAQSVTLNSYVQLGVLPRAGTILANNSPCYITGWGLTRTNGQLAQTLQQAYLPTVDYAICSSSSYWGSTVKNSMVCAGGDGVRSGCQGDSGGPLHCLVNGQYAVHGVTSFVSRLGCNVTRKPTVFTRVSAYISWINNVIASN

Row | SMILES | inhibition at 0.1 µM (chymotrypsin) [%] | inhibition at 0.1 µM (trypsin) [%] | IC50 (prolyl endopeptidase) [nM] | inhibition at 0.1 µM (prolyl endopeptidase) [%] | inhibition of leucine aminopeptidase (leucine aminopeptidase) [%] | inhibition at 0.1 µM (cathepsin B) [%] | inhibition at 0.1 µM (elastase) [%] | inhibition at 0.1 µM (prolyl endopeptidase; concentration 0.1 μM) [%]
1 | CC(=O)OCC(=O)[C@@H]1CCCN1C(=O)[C@@H]1CCCN1C(=O)NCc1ccccc1 [Compound 1, (S)-2-[[(S)-2-(Acetoxyacetyl)-1-pyrrolidinyl]carbonyl]-N-(phenylmethyl)-1-pyrrolidinecarboxamide] | 0 | 0 | 0.1 | 100 | 0 | 0 | 0 | 
2 | O=C(CO)[C@@H]1CCCN1C(=O)[C@@H]1CCCN1C(=O)NCc1ccccc1 [Compound 2, (S)-2-[[(S)-2-(Hydroxyacetyl)-1-pyrrolidinyl]carbonyl]-N-(phenylmethyl)-1-pyrrolidinecarboxamide] | 0 | 0 |  |  | 0 | 0 | 0 | 98
3 | O=C(OCC(=O)[C@@H]1CCCN1C(=O)[C@@H]1CCCN1C(=O)NCc1ccccc1)c1ccccc1 [Compound 3] | 0 | 0 | 0.1 | 98 | 0 | 0 | 0 | 
4 | CC(C)(C)C(=O)OCC(=O)[C@@H]1CCCN1C(=O)[C@@H]1CCCN1C(=O)NCc1ccccc1 [Compound 4, (S)-N-(Phenylmethyl)-2-[[(S)-2-(pivaloyloxyacetyl)-1-pyrrolidinyl]carbonyl]-1-pyrrolidinecarboxamide] | 0 | 0 | 1 | 97 | 0 | 0 | 0 | 
5 | O=C(CO)[C@@H]1CCCN1C(=O)[C@@H]1CCCN1C(=O)NCCc1ccccc1 [Compound 5, (S)-2-[[(S)-2-(Hydroxyacetyl)-1-pyrrolidinyl]carbonyl]-N-(2-phenylethyl)-1-pyrrolidinecarboxamide] | 0 | 0 | 0.3 | 100 | 0 | 0 | 0 | 
6 | COc1ccc(CNC(=O)N2CCC[C@H]2C(=O)N2CCC[C@H]2C(=O)CO)cc1 [Compound 6, (S)-2-[[(S)-2-(Hydroxyacetyl)-1-pyrrolidinyl]carbonyl]-N-[(4methoxyphenyl)methyl]-1-pyrrolidinecarboxamide] | 0 | 0 | 0.7 | 100 | 0 | 0 | 0 | 
7 | COc1ccc(OCC(=O)N2CCC[C@H]2C(=O)N2CCC[C@H]2C(=O)CO)cc1 [Compound 9, (S)-2-[[(S)-2-(Hydroxyacetyl)-1-pyrrolidinyl]carbonyl]-1-[(4methoxyphenyl)oxyacetyl]pyrrolidine] |  |  | 2 |  |  |  |  | 
8 | COc1ccc(OCC(=O)N2CCC[C@H]2C(=O)N2CCC[C@H]2C(=O)COC(=O)C(C)(C)C)cc1 [Compound 10, (S)-1-[(4-Methoxyphenyl)oxyacetyl]-2-[[(S)-2-(pivaloyloxyacetyl)1-pyrrolidinyl]carbonyl]pyrrolidine] |  |  | 10 |  |  |  |  | 
9 | CCCCCCCC(=O)N1CCC[C@H]1C(=O)N1CCC[C@H]1C(=O)CO [Compound 11, (S)-2-[[(S)-2-(Hydroxyacetyl)-1-pyrrolidinyl]carbonyl]-1-octanoylpyrrolidine] |  |  | 0.4 |  |  |  |  | 
10 | CCCCCCCC(=O)N1CCC[C@H]1C(=O)N1CCC[C@H]1C(=O)COC(C)=O [Compound 12, (S)-2-[[(S)-2-(Acetoxyacetyl)-1-pyrrolidinyl]carbonyl]-1-octanoylpyrrolidine] |  |  | 2 |  |  |  |  | 
11 | CCCCCCCC(=O)N1CCC[C@H]1C(=O)N1CCC[C@H]1C(=O)COC(=O)c1ccccc1 [Compound 13, (S)-2-[[(S)-2-(Benzoyloxyacetyl)-1-pyrrolidinyl]carbonyl]-1-octanoylpyrrolidine] |  |  | 8 |  |  |  |  | 
12 | O=C(CO)[C@@H]1CCCN1C(=O)[C@@H]1CSCN1C(=O)OCc1ccccc1 [Compound 14, (R)-4-[[(S)-2-(Hydroxyacetyl)-1-pyrrolidinyl]carbonyl]-3(phenylmethyloxycarbonyl)thiazolidine] |  |  | 1 |  |  |  |  | 
13 | CC(=O)OCC(=O)[C@@H]1CCCN1C(=O)[C@@H]1CCCN1C(=O)NCc1ccc(Cl)cc1 [Compound 15, (S)-2-[[(S)-2-(Acetoxyacetyl)-1-pyrrolidinyl]carbonyl]-N(4-chlorophenylmethyl)-1-pyrrolidinecarboxamide] |  |  | 2 |  |  |  |  | 
